# Earlier results in US20240316118A1, “ANTIVIRAL NASAL SPRAY FLAVONOIDS?BEE PROPOLIS” (priority 2022, published 2024).
# Read-outs that look alike come from different tables or passages of the source.
# Tests used:
# Rotavirus virions = settings: Rhesus Rotavirus, Ref. [20]
# HCV replicase = settings: Ref. [19]
# NS3 protease = NS3 protease (Hepatitis C virus genotype 1a, UniProt P26664); settings: for Molecular Mechanisms: HCV replication: NS3 protease
# DENV-2 virions = settings: DENV-2, Ref. [40]
# NS1 = NS1 (Dengue virus type 2, UniProt P29990); settings: Ref. [23] (molecular docking)
# NOX4 = settings: NOX4, Ref. [24]
# HIV protease = HIV protease (Human immunodeficiency virus type 1 group M subtype B, UniProt P04585); settings: Ref. [27] (computational)
# SARS-CoV = settings: Vero E6 cells; read-out: half-effective concentration (EC50), SARS-CoV infection
# NS5B polymerase = NS5B polymerase (Hepatitis C virus genotype 1a, UniProt P26664); settings: for Molecular Mechanisms: HCV replication: NS5B polymerase, Refs. [33], [40]
# Envelope protein, 2 = Envelope protein, 2 (Hepatitis C virus genotype 1a, UniProt P26664); settings: HCV Envelope protein 2, Ref. [41]
# NS5A, HSP70, HCV virions = settings: Ref. [41]
# Phosphoprotein P = settings: Ref. [32]; for Molecular Mechanisms: viral replication: RSV
# bovine coronavirus NCDCV = settings: at a concentration of 60 μg/mL
# [1] = system: Dengue virus type 2 (DENV-2); settings: Vero cells
# human coronavirus OC43 = settings: at a concentration of 60 μg/mL
# cytomegalovirus = settings: inoculated HeLa cells; read-out: half inhibitory concentration (IC50), replication of cytomegalovirus
# Influenza virions = settings: Influenza A/WS/33, Ref. [37]
# Vero cells = settings: PEDV study
# PEDV = settings: Vero cells
# NTCP receptor = NTCP receptor (Homo sapiens, UniProt Q14973)
# Reverse transcriptase = Reverse transcriptase (Human immunodeficiency virus type 1 group M subtype B, UniProt P04585); settings: Refs. [43], [31]
# Chain of NS3 protease (P26664 1027-1657): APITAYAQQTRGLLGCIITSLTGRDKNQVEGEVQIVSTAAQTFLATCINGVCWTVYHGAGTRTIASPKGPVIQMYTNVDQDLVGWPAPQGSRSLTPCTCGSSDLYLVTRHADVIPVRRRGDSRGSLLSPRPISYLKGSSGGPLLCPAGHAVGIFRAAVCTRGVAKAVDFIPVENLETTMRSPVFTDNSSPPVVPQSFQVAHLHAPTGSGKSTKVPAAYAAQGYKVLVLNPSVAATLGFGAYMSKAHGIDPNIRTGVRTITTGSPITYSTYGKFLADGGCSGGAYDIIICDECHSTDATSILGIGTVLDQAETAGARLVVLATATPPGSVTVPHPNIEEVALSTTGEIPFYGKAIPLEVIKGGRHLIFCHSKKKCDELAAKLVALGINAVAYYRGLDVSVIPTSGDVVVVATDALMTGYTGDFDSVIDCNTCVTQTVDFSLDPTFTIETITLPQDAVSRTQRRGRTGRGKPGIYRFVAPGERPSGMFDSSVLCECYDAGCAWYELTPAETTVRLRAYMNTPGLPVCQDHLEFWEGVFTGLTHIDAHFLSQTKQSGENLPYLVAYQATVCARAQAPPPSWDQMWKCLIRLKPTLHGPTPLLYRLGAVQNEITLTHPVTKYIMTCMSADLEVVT
# Chain of NS3 protease (P26664 1658-1711): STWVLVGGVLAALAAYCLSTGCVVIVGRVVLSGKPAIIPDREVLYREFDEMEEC
# Chain of NS5B polymerase (P26664 2421-3011): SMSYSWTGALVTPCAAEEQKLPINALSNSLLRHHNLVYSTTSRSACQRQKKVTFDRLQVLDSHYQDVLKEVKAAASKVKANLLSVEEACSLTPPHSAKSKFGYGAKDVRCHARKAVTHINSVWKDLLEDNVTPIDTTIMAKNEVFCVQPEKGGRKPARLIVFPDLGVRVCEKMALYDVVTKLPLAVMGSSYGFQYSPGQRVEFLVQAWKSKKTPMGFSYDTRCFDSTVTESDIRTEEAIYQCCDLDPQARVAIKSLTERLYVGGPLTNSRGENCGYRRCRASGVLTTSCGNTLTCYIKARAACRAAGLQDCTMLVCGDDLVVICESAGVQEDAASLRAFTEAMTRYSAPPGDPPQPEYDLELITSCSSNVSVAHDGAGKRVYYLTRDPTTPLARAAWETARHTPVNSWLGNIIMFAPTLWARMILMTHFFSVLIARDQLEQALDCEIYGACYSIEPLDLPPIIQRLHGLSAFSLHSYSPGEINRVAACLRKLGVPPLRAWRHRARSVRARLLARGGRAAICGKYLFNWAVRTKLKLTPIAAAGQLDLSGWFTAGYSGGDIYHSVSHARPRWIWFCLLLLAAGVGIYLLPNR
# Chain of NS1 (P29990 776-1127 limits assumed): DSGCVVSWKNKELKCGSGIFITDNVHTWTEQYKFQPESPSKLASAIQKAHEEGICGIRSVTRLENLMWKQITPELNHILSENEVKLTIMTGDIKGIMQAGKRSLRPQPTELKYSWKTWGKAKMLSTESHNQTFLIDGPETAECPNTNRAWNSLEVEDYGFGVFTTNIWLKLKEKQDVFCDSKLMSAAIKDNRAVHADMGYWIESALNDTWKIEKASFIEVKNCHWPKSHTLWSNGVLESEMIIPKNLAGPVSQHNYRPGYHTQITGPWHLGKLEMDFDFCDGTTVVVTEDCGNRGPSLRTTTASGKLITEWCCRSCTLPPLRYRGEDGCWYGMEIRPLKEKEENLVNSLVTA
# Chain of Envelope protein, 2 (P26664 384-746): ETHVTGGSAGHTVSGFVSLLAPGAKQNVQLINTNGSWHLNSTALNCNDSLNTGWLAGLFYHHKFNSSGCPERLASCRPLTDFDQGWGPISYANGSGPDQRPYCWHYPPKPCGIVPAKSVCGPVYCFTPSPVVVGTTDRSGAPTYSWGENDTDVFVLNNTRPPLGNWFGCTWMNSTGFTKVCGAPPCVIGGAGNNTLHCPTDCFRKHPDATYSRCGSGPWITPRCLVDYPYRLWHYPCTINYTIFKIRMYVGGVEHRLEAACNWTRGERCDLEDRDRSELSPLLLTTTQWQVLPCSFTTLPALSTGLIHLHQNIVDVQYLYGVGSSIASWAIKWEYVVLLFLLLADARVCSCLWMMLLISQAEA
# Chain of NTCP receptor (Q14973 whole entry): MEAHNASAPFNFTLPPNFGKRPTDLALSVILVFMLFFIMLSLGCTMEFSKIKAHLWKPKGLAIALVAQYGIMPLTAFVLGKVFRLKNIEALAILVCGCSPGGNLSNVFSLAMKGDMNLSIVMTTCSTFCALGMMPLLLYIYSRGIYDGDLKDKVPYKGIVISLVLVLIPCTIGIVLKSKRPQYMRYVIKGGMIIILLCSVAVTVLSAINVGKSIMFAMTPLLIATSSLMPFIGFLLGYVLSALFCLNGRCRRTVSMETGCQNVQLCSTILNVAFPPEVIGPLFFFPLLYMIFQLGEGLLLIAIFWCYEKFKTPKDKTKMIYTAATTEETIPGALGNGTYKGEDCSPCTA
compound,measurement,setting,value
O=c1cc(-c2ccc(O)cc2)oc2cc(O[C@@H]3O[C@H](CO)[C@@H](O)[C@H](O)[C@H]3O)cc(O)c12 [Apigenin-7-O-glucoside],Molecular Mechanisms: viral replication,Rotavirus virions,Inhibition viral
O=c1cc(-c2ccc(O)cc2)oc2cc(O)cc(O)c12 [Apigenin],Molecular Mechanisms: HCV replication,HCV replicase,Inhibition HCV
same,Molecular Mechanisms: HCV replication,NS3 protease,Inhibition of HCV
O=C(O)[C@H]1O[C@@H](Oc2cc3oc(-c4ccccc4)cc(=O)c3c(O)c2O)[C@H](O)[C@@H](O)[C@@H]1O [Baicalin],Molecular Mechanisms: viral replication,DENV-2 virions,"Inhibition of viral replication,"
same,Molecular Mechanisms: viricidal activity,DENV-2 virions,Viricidal activity
O=C1c2c(O)cc(O)cc2OC(c2ccc(O)cc2)C1C1C(=O)c2c(O)cc(O)cc2OC1c1ccc(O)cc1 (stereo not drawn) [Chamaejasmin],Molecular Mechanisms: NS1 glycosylation,NS1,Inhibition of NS1 glycosylation
CC1O[C@@H](OC[C@H]2OC(Oc3cc4c(O)cc(O)cc4[o+]c3-c3cc(O)c(O)c(O)c3)[C@H](O)C(O)C2O)C(O)C(O)[C@H]1O (stereo partly drawn) [Delphinidin-3-rutinoside],Molecular Mechanisms: HSV-1 replication,NOX4,Inhibition of HSV-1
O=c1c(O)c(-c2ccc(O)cc2)oc2cc(O[C@@H]3O[C@H](CO)[C@@H](O)[C@H](O)[C@H]3O)cc(O)c12 [Kaempferol-7-O-glucoside],Molecular Mechanisms: virion production,HIV protease,Inhibition virion production
O=c1cc(-c2ccc(O)c(O)c2)oc2cc(O)cc(O)c12 [Luteolin],Molecular Mechanisms: HCV replication,HCV replicase,Inhibition HCV
same,EC50,SARS-CoV,10.6 µM
same,CC50,Vero E6 cells,155 µM
same,Molecular Mechanisms: HCV replication,NS5B polymerase,Inhibition of HCV
O=C1C[C@@H](c2ccc(O)cc2)Oc2cc(O)cc(O)c21 [Naringenin],Molecular Mechanisms: virion assembly,"Envelope protein, 2","Inhibition of virion assembly,"
same,Molecular Mechanisms: viral translation,"NS5A, HSP70, HCV virions",Inhibition Of viral
same,Molecular Mechanisms: virion assembly,"NS5A, HSP70, HCV virions",Inhibition of virion
COc1ccc(-c2cc(=O)c3c(OC)c(OC)c(OC)c(OC)c3o2)cc1OC [Nobiletin],Molecular Mechanisms: viral replication,Phosphoprotein P,"Inhibition of viral replication,"
same,Molecular Mechanisms: RSV entry into cells,Phosphoprotein P,Inhibition of RSV entry into cells
O=c1c(O)c(-c2ccc(O)c(O)c2)oc2cc(O)c(O)c(O)c12 [Quercetagetin],Molecular Mechanisms: RNA binding to NS5B,"NS5B polymerase; HCV, Ref. [39]",Inhibition of RNA binding to NS5B
"O=c1c(O)c(-c2ccc(O)c(O)c2)oc2cc(O)cc(O)c12 [Quercetin, 2-(3,4-dihydroxyphenyl)-3,5,7-trihydroxy-4H-1 benzopyran-4-one]",reduced infectivity of bovine coronavirus NCDCV,bovine coronavirus NCDCV,50%
same,Molecular Mechanisms: virion production,NS3 protease; HCV NS3 protease,Inhibition of virion production
same,Molecular Mechanisms: HCV replication,NS3 protease,"HCV NS3 protease Inhibition of HCV replication,"
same,CC50,"Vero E6 cells; read-out: cytotoxicity CC50, Vero E6 cells",3320 µM
same,Molecular Mechanisms: virion assembly,"Envelope protein, 2","Inhibition of virion assembly,"
same,DENV-2 ribonucleic acid (RNA) reduction,[1],67%
same,"IC50, DENV-2 replication",[1],35.7 µg/mL
same,Molecular Mechanisms: HCV replication,NS5B polymerase,Inhibition of HCV
same,Molecular Mechanisms: viral translation,"NS5A, HSP70, HCV virions",Inhibition Of viral
same,Molecular Mechanisms: virion assembly,"NS5A, HSP70, HCV virions",Inhibition of virion
same,reduced infectivity of human coronavirus OC43,human coronavirus OC43,50%
same,IC50,cytomegalovirus,3.2 ± 0.8 µM
C[C@@H]1O[C@@H](Oc2c(-c3ccc(O)c(O)c3)oc3cc(O)cc(O)c3c2=O)[C@H](O)[C@H](O)[C@H]1O [Quercetin-3-rhamnoside],Molecular Mechanisms: virus infection,Influenza virions,Inhibition of virus infection
COc1ccc(-c2cc(=O)c3c(OC)c(OC)c(OC)c(OC)c3o2)cc1 [Tangeretin],Molecular Mechanisms: viral replication,Phosphoprotein P,"Inhibition of viral replication,"
same,Molecular Mechanisms: RSV entry into cells,Phosphoprotein P,Inhibition of RSV entry into cells
C[C@@H]1O[C@@H](Oc2cc(O)c3c(=O)c(O)c(-c4ccc(O)c(O)c4)oc3c2)[C@H](O)[C@H](O)[C@H]1O [quercetin 7-O-rhamnoside],50% cytotoxicity concentration (CC50),Vero cells,100 µg/mL
same,"IC50, PEDV replication",PEDV,0.014 µg/mL
CC(C)=CC[C@@]12Oc3cc(O)c([C@H]4C=C(C)C[C@H](c5ccc(O)cc5O)[C@H]4C(=O)c4ccc(O)cc4O)c(O)c3C(=O)[C@]1(O)Oc1cc(O)ccc12 [sanggenon O],Molecular Mechanisms: NS1 glycosylation,NS1,Inhibition of NS1 glycosylation
Catechin,Molecular Mechanisms: viral translation,"NS5A, HSP70, HCV virions",Inhibition Of viral
same,Molecular Mechanisms: virion assembly,"NS5A, HSP70, HCV virions",Inhibition of virion
epigallocatechin-3-gallate [EGCG],Molecular Mechanisms: HBV entry into cells,NTCP receptor,Inhibition of HBV entryinto
same,Molecular Mechanisms: NS1 glycosylation,NS1,Inhibition of NS1 glycosylation
same,Molecular Mechanisms: virion production,HIV protease,Inhibition virion production
same,Molecular Mechanisms: HIV replication,Reverse transcriptase,Inhibition of HIV
